Measurements as given in EP1623706A2 (priority 2001, dated 2002).
Read-outs that look alike come from different tables or passages of the source.

How the values were obtained:
[1] = test system: human breast carcinoma line H3396; test: H3396 tumor cell proliferation (3H-thymidine incorporation); format: cell-based
Method: Primary human umbilical vein endothelial cells (HUVEC) were purchased from CLONETICS Inc. (San Diego, CA) and used at passage 2 to 3. Proliferation was measured using ^3H-thymidine incorporation in cells by pulsing twenty-four hours prior to harvesting cell cultures. The human breast carcinoma line H3396 was used to assess activity of compound on tumor cells. Cells (2 × 10^3) were plated on collagen IV coated 96 well plates. Twenty-four hours later, compounds were added at varying concentrations. After 48 hours, ^3H-thymidine was added and cells were allowed to incorporate this label over a twenty-four hour period. Cellular extracts were harvested onto glass filters and incorporated radioactivity was determined by counting in a Beta scintillation counter. The IC50, defined as the drug concentration that causes 50% inhibition of ^3H-thymidine incorporation, was extrapolated from the plotted data. Cell selective inhibition for endothelial cells by a particular compound was defined by at least a ten-fold greater inhibition of HUVEC primary cell cultures when compared to the H3396 tumor cell line.

[2] = test system: mammary 16/C murine carcinoma; test: Staged subcutaneous mammary 16/C carcinoma in mice, gross log cell kill; format: in vivo, C3H mice
From the text: The final concentrations of each component of the vehicle was as follows: CREMOPHOR 10%; ethanol […]; aqueous 80%.
C3H conventional mice were purchased from Harlan-Sprague Dawley (Indianapolis, IN) and fed mouse chow and water ad libitum.
The metastatic mammary 16/C murine carcinoma was propagated biweekly in C3H mice. Experiments were initiated by subcutaneous insertion by trocar of tumor fragments.
For in vivo tumor testing, the C3H mice were implanted subcutaneously with mammary 16/C tumor fragments. All treatments were initiated on Day 10 post-tumor implant, except for an untreated control group. All groups contained 8 mice. Tumors were measured once or twice weekly and dimensions were converted to weights using the formula Weight (milligrams)= […], where a=length and b=width (in millimeters). The median time for tumors within each group of mice to reach 1 gram was determined and the delays in median time to reach 1 gram tumor target size for treated (T) versus control (C) groups was calculated. These delays in tumor growth (T-C value in days) were further converted to gross log cell kill (LCK) values using the formula T-C/(tumor volume doubling time, TVDT, of the control group) x (3.32). A LCK of greater than or equal to 1 LCK was considered an active result. Cures were assessed at the end of each experiment and defined in the absence of a tumor mass of greater than 35 milligrams. Experiments were terminated more than 10 x TVDT following the completion of all treatments.

[3] = test system: human umbilical vein endothelial cell (HUVEC); test: HUVEC proliferation (3H-thymidine incorporation); format: cell-based; conditions: second value of two separate experiments, read-out: IC50 in Cells HUVEC
Method: Primary human umbilical vein endothelial cells (HUVEC) were purchased from CLONETICS Inc. (San Diego, CA) and used at passage 2 to 3. Proliferation was measured using ^3H-thymidine incorporation in cells by pulsing twenty-four hours prior to harvesting cell cultures. […] Cells (2 × 10^3) were plated on collagen IV coated 96 well plates. Twenty-four hours later, compounds were added at varying concentrations. After 48 hours, ^3H-thymidine was added and cells were allowed to incorporate this label over a twenty-four hour period. Cellular extracts were harvested onto glass filters and incorporated radioactivity was determined by counting in a Beta scintillation counter. The IC50, defined as the drug concentration that causes 50% inhibition of ^3H-thymidine incorporation, was extrapolated from the plotted data.

[4] = test system: endothelial cells occurring in MATRIGEL plugs; test: In vivo […] plug angiogenesis model; set-up: species or system athymic (nu/nu) Balb/c mice; conditions: mouse
Method: LX1 human lung tumor fragments that were maintained by serial subcutaneous passage in athymic (nu/nu) Balb/c mice were implanted subcutaneously as small fragments approximately 0.1 mm^3 in size. Tumor volume doubling time for this tumor in these studies was 2.8 days. When tumors reached the size range of 150-200 mm^3, liquid […] was injected subcutaneously on the side contralateral to the tumor. Treatment was initiated 24 hours later at varying doses and schedules. Prior to implanting, […] is prepared by placing solidified […] on ice overnight at 4 C in accordance with the method described by Passiniti et al. (Lab. Invest. 1992 67:519-28). At the liquid phase and while on ice, VEGF and bFGF (Peprotech, Inc. Rocky Hill, NJ) is added to the […] at final respective concentrations of 75 ng/ml and 300 ng/ml. Stock solutions of these growth factors are made fresh at 10 mg/ml in PBS. […] These plugs were then processed for paraffin embedding and sectioned at 5 µm thickness followed by staining with hematoxylin and eosin prior to quantitative analysis. The number of endothelial cells in plugs was quantitated using the IMAGEPRO PLUS software (Media Cybernetics, Inc., Silver Spring, MD) at a magnification of 20x. […]
Angiogenesis is evaluated in these plugs as the number of endothelial cells migrating into plugs from compound treated groups relative to the vehicle treated group. […]

[5] = test system: L2987 human lung tumors
From the text: L2987 human lung tumors were implanted and allowed to reach 50 to 100 mm^3 before drug administration.

[6] = test system: drug-resistant Lewis Lung carcinoma; conditions: 170 mg/kg every 6 days versus other cyclophosphamide schedules tested (e.g. 135 mg/kg every 4 days); cited from earlier work
[7] = metronomic regime 20 mg/kg orally, q2dx15, cumulative dose 300 mg/kg

In the case of `CC(=O)O[C@H]1C(=O)[C@@]2(C)[C@H]([C@H](OC(=O)c3ccccc3)[C@]3(O)C[C@H](OC(=O)[C@H](O)[C@@H](NC(=O)c4ccccc4)c4ccccc4)C(C)=C1C3(C)C)[C@]1(OC(C)=O)CO[C@@H]1C[C@@H]2O` [TAXOL, paclitaxel], the IC50 ([1]; H3396, second value of two separate experiments, read-out: IC50 in Cells H3396) is reported as 4 nM, the cures/total ([2]; Paclitaxel 20 mg/kg/inj qd 10-14 iv, Paclitaxel 30 qd 32-36 iv, no Formula I, Day 88 post-tumor implant) is reported as 1/8 and the cures/total ([2]; Paclitaxel 30 mg/kg/inj qd 10-14 iv only, Day 60 post tumor implant) is reported as 2/8. For the same compound, the cures/total ([2]; Paclitaxel 30 mg/kg/inj qd 10-14 iv, Paclitaxel 30 qd 32-36 iv, no Formula I, Day 88 post-tumor implant, listed as Paclitaxel) was 2/8, the cures/total ([2]; Paclitaxel 30 mg/kg/inj qd 10-14 iv, Paclitaxel 30 qd 32-36 iv, no Formula I, Day 88 post-tumor implant, listed as paclitaxel) was 2 of 8 and the cures/total ([2]; Paclitaxel 45 mg/kg/inj qd 10-14 iv only, Day 60 post tumor implant) was 1/8. The “likely MTD regimen” value ([2]; during each of the two courses of treatment (qdx5; 10, 32, iv)) was 30 mg/kg/inj, the MTD regimen ([2]; qdx5, iv, beginning on Day 10 post-tumor implant, single course) was 45 mg/kg/injection and the IC50 [3] was 5 nM.
In the case of `COC(=O)O[C@@]12CO[C@@H]1C[C@H](O)[C@@]1(C)C(=O)[C@H](OC(C)=O)C3=C(C)[C@@H](OC(=O)[C@H](O)[C@@H](NC(=O)OC(C)(C)C)C(C)(C)C)C[C@@](O)([C@@H](OC(=O)c4ccccc4)[C@H]21)C3(C)C` [Formula I, 3'-tert-Butyl-3'-N-tert-butyloxycarbonyl-4-deacetyl-3'-dephenyl-3'-N-debenzoyl-4-O-methoxycarbonyl-paclitaxel], the “doses lower than the maximum tolerated dose at which anti-angiogenic effects are still observed in vivo” value [4] is reported as “approximately 13 fold”, the weight loss ([5]; 60 mg/kg orally, standard schedule q2dx5 (MTD), cumulative dose 300 mg/kg) is reported as “weight loss was also observed” and the anti-tumor response ([5]; 60 mg/kg orally, standard schedule q2dx5 (MTD), cumulative dose 300 mg/kg, compared with metronomic regime) is reported as “greater anti-tumor response was observed”. For the same compound, the tumor growth [5, 7] was “suppressed tumor growth”, the weight loss [5, 7] was “no weight loss was observed” and the IC50 ([1]; H3396, read-out: IC50 in Cells H3396, second value of two separate experiments) was 3 nM.
In the case of `O=P1(N(CCCl)CCCl)NCCCO1` (stereo not shown) [cyclophosphamide], the controlling tumor growth [6] is listed as “more effective”.
